Results: US11352352B2, “Aminopyrimidine compound, preparation method therefor and use thereof” (BEIJING ADAMADLE BIOTECHNOLOGY LIMITED LIABILITY COMPANY, priority 2017, dated 2022)

Assays:
Assay in all cases: Cell proliferation inhibition experiment, CellTiter-Glo (CTG) method
Assay type in all cases: cell-based
PC-9 = conditions: Homo sapiens, PC-9, 72 h, PC-9 cells, 3 days
Description: (§1) Cell Proliferation Inhibition Experiment
(§2) Compounds were tested in the selected cell lines, and solvent is set as control, nine concentrations were detected with three parallel wells for each concentration.
(§3) 2. Reagents and Materials • 1) fetal bovine serum FBS (GIBCO, Cat #10099-141) • 2) CellTiter-Glo® Luminescent Cell Viability Assay (Promega, Cat #G7572) • 3) 96-well plate with flat clear bottom, black wall plates (Corning®, Cat #3340)
(§4) The first day: Incubation and plant of cells • 1) Cells in logarithmic growth phase were harvested and counted by cell counter. Cell viability was detected by trypan blue exclusion assay to ensure that the viability of each cell line was above 90%. • 2) Cell concentration was adjusted by diluting complete culture medium, and 90 μL cell suspension was added to a 96-well plate (T0 plate and drug plate to be tested) to make the cell density reach the specified concentration. • 3) Cells in 96-well plate were incubated overnight at condition of 37° C., 5% CO2 and 95% humidity.
(§5) The second day: Reading T0 plate • 1) 10 μL culture medium was added to T0 plate. • 2) CTG reagent was melt, while the cell plate was balanced to room temperature for 30 minutes. • 3) The same volume of CTG solution was added to each well. • 4) The cell plate was vibrated for 2 minutes on an orbital shaker to lyze the cells. • 5) The cell plate was placed at room temperature for 10 minutes to stabilize the cold light signal. • 6) The cold light value was read with EnVision.
(§6) Drug Addition • 1) Drug dilution. The compounds to be tested were dissolved and packaged, then a gradient elution was performed to obtain a solution diluted 10 times. • 2) Drug addition. […] drug solution was added into each well of the 96-well plate, which was inoculated cells, three parallel wells were set for each cell concentration.
(§7) The third day: reading plate at the terminal • 1) CTG reagent was melt, while the cell plate was balanced to room temperature for 30 minutes. • 2) The same volume of CTG solution was added to each well. • 3) The cell plate was vibrated for 2 minutes on an orbital shaker to lyze the cells. • 4) The cell plate was placed at room temperature for 10 minutes to stabilize the cold light signal. • 5) The cold light value was read with EnVision
(§8) Data were analyzed using GraphPad Prism 5.0 software, and non-linear S curve regression was used for fitting the data to give a dose-effect curve, IC50 value was calculated accordingly. Cell Survival Rate (%)=(Lumdrugs−Lumcontrol)/(Lumcell−Lumcontrol)×100%.

NCI-H1975 = conditions: for IC50: Homo sapiens, NCI-H1975, 72 h, NCI-H1975 cells, CTG, 3 days; for A-431/NCI-H1975 Selectivity: ratio of A-431 IC50 to NCI-H1975 IC50
Description: as §1, §2, §3, §4, §5, §6, §7, §8

A-431 = conditions: Homo sapiens, A-431, 72 h, A-431 cells, 3 days
Description: as §1, §2, §3, §4, §5
Drug Addition • 1) Drug dilution. The compounds to be tested were dissolved and packaged, then a gradient elution was performed to obtain a solution diluted 10 times. • 2) Drug addition. […] drug solution was added into each well of the 96-well plate, which was inoculated cells, three parallel wells were set for each cell concentration. The highest concentration of the compounds to be tested on A-431 was 30 μM, nine concentrations was set with 3 times dilution; while the highest concentration on NCI-H1975 and PC-9 was 1.111 μM, 9 concentrations was set with 3 times dilution. • 3) Culture. Cells in 96-well plates in which drugs have been added were cultured at condition of 37° C., 5% CO2 and 95% humidity for 3 days, and then CTG assay was performed respectively.
as §7, §8

Row | Compound | IC50 (PC-9) | IC50 (NCI-H1975) | IC50 (A-431) | A-431/NCI-H1975 Selectivity (NCI-H1975)
1 | C=CC(=O)Nc1cc(Nc2cc(-c3ccc4ncsc4c3)ncn2)c(OC)cc1N(C)C1CCN(C)CC1 [compound 81] | 26.4 nM | 28.7 nM | 1380 nM | 48.1
2 | C=CC(=O)Nc1cc(Nc2cc(-c3ccc4ncsc4c3)ncn2)c(OC)cc1N1C[C@@H](C)N(C)[C@@H](C)C1 [compound 82] | 29.6 nM | 24 nM | 1090 nM | 45.6
3 | C=CC(=O)Nc1cc(Nc2cc(-c3ccc4c(cnn4C(C)C)c3)ncn2)c(OC)cc1N(C)C1CCN(C)CC1 [compound 85] | 56.7 nM | 72.3 nM | 1840 nM | 25.4
4 | C=CC(=O)Nc1cc(Nc2cc(-c3ccc4c(cnn4C(C)C)c3)ncn2)c(OC)cc1N1CCC(C2CCN(C)CC2)CC1 [compound 86] | 76.4 nM | 91.6 nM | 1780 nM | 19.4
5 | C=CC(=O)Nc1cc(Nc2cc(-c3ccc4c(cnn4C(C)C)c3)ncn2)c(OC)cc1N(C)C1CCN(C2CCN(C)CC2)CC1 [compound 87] | 77.6 nM | 114 nM | 1960 nM | 17.2
6 | C=CC(=O)Nc1cc(Nc2cc(-c3ccc4c(cnn4C)c3)ncn2)c(OCC)cc1N(C)CCN(CC)CC [compound 93] | 18.5 nM | 20.5 nM | 854 nM | 41.7
7 | C=CC(=O)Nc1cc(Nc2cc(-c3ccc4c(cnn4C)c3)ncn2)c(OC)cc1N1CCC(N2CCN(C(C)C)CC2)CC1 [compound 101] | 19.5 nM | 7.3 nM | 633 nM | 
8 | C=CC(=O)Nc1cc(Nc2cc(-c3ccc4c(cnn4C)c3)ncn2)c(OC)cc1N1CCOCC1 [compound 102] | 12.5 nM | 14.1 nM | 986 nM | 70.0
9 | C=CC(=O)Nc1cc(Nc2cc(-c3ccc4c(cnn4C)c3)ncn2)c(OC)cc1N1CCC2(CC1)COC2 [compound 107] | 17.8 nM | 16.5 nM | 1290 nM | 78.2
10 | C=CC(=O)Nc1cc(Nc2nccc(-c3ccc4c(cnn4C)c3)n2)c(OC)cc1N(C)C1CCN(C)C1 (centres unmarked) [compound 109] | 35 nM | 32.3 nM | 1430 nM | 44.4
11 | C=CC(=O)Nc1cc(Nc2cc(-c3ccc4c(cnn4C)c3)ncn2)c(OC(F)F)cc1N(C)C1CCN(C)C1 (centres unmarked) [compound 111] | 16.8 nM | 18 nM | 948 nM | 52.7
12 | C=CC(=O)Nc1cc(Nc2nccc(-c3ccc4c(cnn4C)c3)n2)c(OC(F)F)cc1N1CCN(CCN(C)C)CC1 [compound 114] | 32.7 nM | 31.5 nM | 1480 nM | 46.9
13 | C=CC(=O)Nc1cc(Nc2cc(-c3ccc4c(cnn4C)c3)ncn2)c(OCC)cc1N1CCN(CCN(C)C)CC1 [compound 117] | 11.2 nM | 11.3 nM | 679 nM | 60.1

Continued, in another order:

Row | IC50 (PC-9) | IC50 (NCI-H1975) | IC50 (A-431) | Compound | A-431/NCI-H1975 Selectivity (NCI-H1975)
14 | 67.9 nM | 73.6 nM | 1100 nM | C=CC(=O)Nc1cc(Nc2cc(-c3ccc4cnn(C)c4c3)ncn2)c(OC)cc1N(C)CCCN(C)C [compound 79] | 15
15 | 35.9 nM | 43 nM | 586 nM | C=CC(=O)Nc1cc(Nc2cc(-c3ccc4cnn(C)c4c3)ncn2)c(OC)cc1N(C)CCN(CC)CC [compound 80] | 13.6
16 | 77.9 nM | 67.2 nM | 1520 nM | C=CC(=O)Nc1cc(Nc2cc(-c3ccc4c(cnn4C(C)C)c3)ncn2)c(OC)cc1N1C[C@@H](C)N(C)[C@@H](C)C1 [compound 83] | 22.6
17 | 27.5 nM | 34.4 nM | 988 nM | C=CC(=O)Nc1cc(Nc2cc(-c3ccc4c(cnn4C(C)C)c3)ncn2)c(OC)cc1N1CCC(N2CCN(C)CC2)CC1 [compound 84] | 28.7
18 | 7.2 nM | 6.1 nM | 987 nM | C=CC(=O)Nc1cc(Nc2cc(-c3ccc4c(cnn4C)c3)ncn2)c(OC)cc1N(C)CCN(C)CC [compound 88] | 161.8
19 | 14.8 nM | 19.9 nM | 954 nM | C=CC(=O)Nc1cc(Nc2cc(-c3ccc4c(cnn4CC)c3)ncn2)c(OCC)cc1N(C)CCN(C)C [compound 89] | 48.0
20 | 15.5 nM | 26.5 nM | 1750 nM | C=CC(=O)Nc1cc(Nc2cc(-c3ccc4c(cnn4C)c3)ncn2)c(OCC)cc1N1C[C@@H](C)N(C)[C@@H](C)C1 [compound 90] | 66.2
21 | 47.2 nM | 62.2 nM | 1320 nM | C=CC(=O)Nc1cc(Nc2cc(-c3ccc4c(cnn4CC)c3)ncn2)c(OCC)cc1N1C[C@@H](C)N(C)[C@@H](C)C1 [compound 91] | 21.3
22 | 13.1 nM | 9.3 nM | 764 nM | C=CC(=O)Nc1cc(Nc2cc(-c3ccc4c(cnn4CC)c3)ncn2)c(OC(F)F)cc1N(C)CCN(C)C [compound 92] | 82.1
23 | 55.7 nM | 47.8 nM | 2040 nM | C=CC(=O)Nc1cc(Nc2cc(-c3ccc4c(cnn4CC)c3)ncn2)c(OCC)cc1N(C)CCN(CC)CC [compound 94] | 42.6
24 | 12.2 nM | 6.7 nM | 997 nM | C=CC(=O)Nc1cc(Nc2cc(-c3ccc4c(cnn4C)c3)ncn2)c(OC(F)F)cc1N(C)CCN(CC)CC [compound 95] | 148.9
25 | 10.8 nM | 13.7 nM | 945 nM | C=CC(=O)Nc1cc(Nc2cc(-c3ccc4c(cnn4CC)c3)ncn2)c(OC(F)F)cc1N(C)CCN(CC)CC [compound 96] | 69
26 | 22.6 nM | 33.1 nM | 798 nM | C=CC(=O)Nc1cc(Nc2cc(-c3ccc4c(cnn4C)c3)ncn2)c(OC(F)F)cc1N1C[C@@H](C)N(C)[C@@H](C)C1 [compound 97] | 24.1
27 | 31.7 nM | 83.5 nM | 1060 nM | C=CC(=O)Nc1cc(Nc2cc(-c3ccc4c(cnn4CC)c3)ncn2)c(OC(F)F)cc1N1C[C@@H](C)N(C)[C@@H](C)C1 [compound 98] | 12.7
28 | 17.9 nM | 14.6 nM | 778 nM | C=CC(=O)Nc1cc(Nc2cc(-c3ccc4c(cnn4C)c3)ncn2)c(OC)cc1N1CCN(CC2CC2)CC1 [compound 105] | 53.3
29 | 6.9 nM | 8 nM | 599 nM | C=CC(=O)Nc1cc(Nc2cc(-c3ccc4c(cnn4C)c3)ncn2)c(OC)cc1N(C)[C@@H]1CCN(C)C1 [compound 110] | 
30 | 9.7 nM | 9 nM | 654 nM | C=CC(=O)Nc1cc(Nc2cc(-c3ccc4c(cnn4CC)c3)ncn2)c(OC)cc1N(C)C1CCN(C)C1 (centres unmarked) [compound 112] | 72.7
31 | 45.6 nM | 56.6 nM | 1360 nM | C=CC(=O)Nc1cc(Nc2nccc(-c3ccc4c(cnn4C)c3)n2)c(OC)cc1N1CCN(CCN(C)C)CC1 [compound 113] | 24.0
